Test: Binding potency against Platelet activating factor (PAF) receptor using [3H]C18-PAF as radioligand on rabbit platelet membranes

SMILES: Cc1nc2cnccc2n1CN1CCN(S(=O)(=O)c2cn(C(=O)N(C)C)c3cc(-c4ccc(F)cc4)ccc23)CC1 [6-(4-Fluoro-phenyl)-3-[4-(2-methyl-imidazo[4,5-c]pyridin-1-ylmethyl)-piperazine-1-sulfonyl]-indole-1-carboxylic acid dimethylamide]
- Ki: 1.2 nM

SMILES: Cc1nc2cnccc2n1CCN1CCN(S(=O)(=O)c2cn(C(=O)N(C)C)c3cc(-c4ccc(F)cc4)ccc23)CC1 [6-(4-Fluoro-phenyl)-3-{4-[2-(2-methyl-imidazo[4,5-c]pyridin-1-yl)-ethyl]-piperazine-1-sulfonyl}-indole-1-carboxylic acid dimethylamide]
- Ki: 53 nM

SMILES: COC(=O)c1[nH]c2cccc(OC)c2c1C(=O)c1ccc(Cn2c(C)nc3cnccc32)cc1 [4-Methoxy-3-[4-(2-methyl-imidazo[4,5-c]pyridin-1-ylmethyl)-benzoyl]-1H-indole-2-carboxylic acid methyl ester]
- Ki: 0.51 nM

SMILES: Cc1nc2cnccc2n1Cc1ccc(C(=O)c2cn(C(=O)N(C)C)c3cccc(Br)c23)cc1 [4-Bromo-3-[4-(2-methyl-imidazo[4,5-c]pyridin-1-ylmethyl)-benzoyl]-indole-1-carboxylic acid dimethylamide]
- Ki: 11 nM

SMILES: Cc1nc2cnccc2n1Cc1ccc(C(=O)c2c[nH]c3cc(-c4ccc(F)cc4)ccc23)cc1 [[6-(4-Fluoro-phenyl)-1H-indol-3-yl]-[4-(2-methyl-imidazo[4,5-c]pyridin-1-ylmethyl)-phenyl]-methanone]
- Ki: 75 nM

SMILES: Cc1nc2ccncc2n1Cc1ccc(C(=O)c2cn(C(=O)N(C)C)c3cc(-c4ccc(F)cc4)ccc23)cc1 [6-(4-Fluoro-phenyl)-3-[4-(2-methyl-imidazo[4,5-c]pyridin-3-ylmethyl)-benzoyl]-indole-1-carboxylic acid dimethylamide]
- Ki: 610 nM

SMILES: Cc1nc2cnccc2n1Cc1ccc(C(=O)c2cn(C(=O)N(C)C)c3cccc(F)c23)cc1 [4-Fluoro-3-[4-(2-methyl-imidazo[4,5-c]pyridin-1-ylmethyl)-benzoyl]-indole-1-carboxylic acid dimethylamide]
- Ki: 5.1 nM

SMILES: COC(=O)c1cccc2c1c(C(=O)c1ccc(Cn3c(C)nc4cnccc43)cc1)cn2CC(=O)C(C)(C)C [1-(3,3-Dimethyl-2-oxo-butyl)-3-[4-(2-methyl-imidazo[4,5-c]pyridin-1-ylmethyl)-benzoyl]-1H-indole-4-carboxylic acid methyl ester]
- Ki: 0.67 nM

SMILES: Cc1nc2cnccc2n1CC1CCN(C(=O)c2cn(C(=O)N(C)C)c3cc(-c4ccc(F)cc4)ccc23)CC1 [6-(4-Fluoro-phenyl)-3-[4-(2-methyl-imidazo[4,5-c]pyridin-1-ylmethyl)-piperidine-1-carbonyl]-indole-1-carboxylic acid dimethylamide]
- Ki: 2.5 nM

SMILES: COC(=O)c1cccc2c1c(C(=O)c1ccc(Cn3ccc4nc(C)nc-4c3)cc1)cn2C(=O)N(C)C [1-Dimethylcarbamoyl-3-[4-(2-methyl-imidazo[4,5-c]pyridin-5-ylmethyl)-benzoyl]-1H-indole-4-carboxylic acid methyl ester]
- Ki: > 1000 nM

SMILES: CCc1cccc2c1c(C(=O)c1ccc(Cn3c(C)nc4cnccc43)cc1)cn2C(=O)N(C)C [4-Ethyl-3-[4-(2-methyl-imidazo[4,5-c]pyridin-1-ylmethyl)-benzoyl]-indole-1-carboxylic acid dimethylamide]
- Ki: 0.91 nM

SMILES: COC(=O)c1cccc2c1c(C(=O)c1ccc(Cn3c(C)nc4cnccc43)cc1)cn2C(C)C [1-Isopropyl-3-[4-(2-methyl-imidazo[4,5-c]pyridin-1-ylmethyl)-benzoyl]-1H-indole-4-carboxylic acid methyl ester]
- Ki: 1.3 nM

SMILES: COC(=O)c1ccc2c(c1)c(C(=O)c1ccc(Cn3c(C)nc4cnccc43)cc1)cn2C(=O)N(C)C [1-Dimethylcarbamoyl-3-[4-(2-methyl-imidazo[4,5-c]pyridin-1-ylmethyl)-benzoyl]-1H-indole-5-carboxylic acid methyl ester]
- Ki: 110 nM

SMILES: COC(=O)c1cccc2c1c(C(=O)c1ccc(Cn3c(C)nc4cnccc43)cc1)cn2S(=O)(=O)C(C)C [3-[4-(2-Methyl-imidazo[4,5-c]pyridin-1-ylmethyl)-benzoyl]-1-(propane-2-sulfonyl)-1H-indole-4-carboxylic acid methyl ester]
- Ki: 0.19 nM

SMILES: C#Cc1cccc2[nH]cc(C(=O)c3ccc(Cn4c(C)nc5cnccc54)c(F)c3)c12 [(4-Ethynyl-1H-indol-3-yl)-[3-fluoro-4-(2-methyl-imidazo[4,5-c]pyridin-1-ylmethyl)-phenyl]-methanone]
- Ki: 2.2 nM

SMILES: C#Cc1cccc2c1c(C(=O)c1ccc(Cn3c(C)nc4cnccc43)c(F)c1)cn2C(=O)NC [4-Ethynyl-3-[3-fluoro-4-(2-methyl-imidazo[4,5-c]pyridin-1-ylmethyl)-benzoyl]-indole-1-carboxylic acid methylamide]
- Ki: 0.63 nM

SMILES: Cc1cccc2c1c(C(=O)c1ccc(Cn3c(C)nc4cnccc43)cc1)cn2C(=O)N(C)C [4-Methyl-3-[4-(2-methyl-imidazo[4,5-c]pyridin-1-ylmethyl)-benzoyl]-indole-1-carboxylic acid dimethylamide]
- Ki: 0.82 nM

SMILES: CCOC(=O)c1cccc2c1c(C(=O)c1ccc(Cn3c(C)nc4cnccc43)cc1)cn2C(=O)N(C)C [1-Dimethylcarbamoyl-3-[4-(2-methyl-imidazo[4,5-c]pyridin-1-ylmethyl)-benzoyl]-1H-indole-4-carboxylic acid ethyl ester]
- Ki: 5.2 nM

SMILES: Cc1nc2cnccc2n1CCCN(C)CC(=O)c1cn(C(=O)N(C)C)c2cc(-c3ccc(F)cc3)ccc12 [6-(4-Fluoro-phenyl)-3-(2-{methyl-[3-(2-methyl-imidazo[4,5-c]pyridin-1-yl)-propyl]-amino}-acetyl)-indole-1-carboxylic acid dimethylamide]
- Ki: 140 nM

SMILES: Cc1nc2cnccc2n1Cc1ccc(C(=O)c2cn(C(=O)N(C)C)c3cccc(C(=O)N(C)C)c23)cc1 [3-[4-(2-Methyl-imidazo[4,5-c]pyridin-1-ylmethyl)-benzoyl]-indole-1,4-dicarboxylic acid bis-dimethylamide]
- Ki: 11 nM

SMILES: Cc1nc2cnccc2n1Cc1ccc(C(=O)c2cn(C(=O)N(C)C)c3cccc(OC(=O)N(C)C)c23)cc1 [Dimethyl-carbamic acid 1-dimethylcarbamoyl-3-[4-(2-methyl-imidazo[4,5-c]pyridin-1-ylmethyl)-benzoyl]-1H-indol-4-yl ester]
- Ki: 3.6 nM

SMILES: Cc1nc2cnccc2n1Cc1ccc(C(=O)c2cn(C(=O)N(C)C)c3cccc(OC(=O)N(C)C)c23)cc1F [Dimethyl-carbamic acid 1-dimethylcarbamoyl-3-[3-fluoro-4-(2-methyl-imidazo[4,5-c]pyridin-1-ylmethyl)-benzoyl]-1H-indol-4-yl ester]
- Ki: 31 nM

SMILES: COC(=O)c1cccc2c1c(C(=O)c1ccc(Cn3c(C)nc4cnccc43)s1)cn2C(=O)N(C)C [1-Dimethylcarbamoyl-3-[5-(2-methyl-imidazo[4,5-c]pyridin-1-ylmethyl)-thiophene-2-carbonyl]-1H-indole-4-carboxylic acid methyl ester]
- Ki: 8.2 nM

SMILES: C#Cc1cccc2c1c(C(O)c1ccc(Cn3c(C)nc4cnccc43)c(F)c1)cn2C(=O)N(C)C (centres undefined) [4-Ethynyl-3-{[3-fluoro-4-(2-methyl-imidazo[4,5-c]pyridin-1-ylmethyl)-phenyl]-hydroxy-methyl}-indole-1-carboxylic acid dimethylamide]
- Ki: 1.5 nM

SMILES: Cc1nc2cnccc2n1Cc1ccc(C(=O)c2cn(C(=O)N(C)C)c3cccc(C(=O)O)c23)cc1 [1-Dimethylcarbamoyl-3-[4-(2-methyl-imidazo[4,5-c]pyridin-1-ylmethyl)-benzoyl]-1H-indole-4-carboxylic acid]
- Ki: 14 nM

SMILES: Cc1nc2cnccc2n1C1CCN(C(=O)c2cn(C(=O)N(C)C)c3cc(-c4ccc(F)cc4)ccc23)CC1 [6-(4-Fluoro-phenyl)-3-[4-(2-methyl-imidazo[4,5-c]pyridin-1-yl)-piperidine-1-carbonyl]-indole-1-carboxylic acid dimethylamide]
- Ki: 3.4 nM

SMILES: Cc1nc2cnccc2n1Cc1cccc(C(=O)c2cn(C(=O)N(C)C)c3cc(-c4ccc(F)cc4)ccc23)c1 [6-(4-Fluoro-phenyl)-3-[3-(2-methyl-imidazo[4,5-c]pyridin-1-ylmethyl)-benzoyl]-indole-1-carboxylic acid dimethylamide]
- Ki: 180 nM

SMILES: COC(=O)c1cccc2c1c(C(=O)c1ccc(Cn3c(C)nc4c[n+]([O-])ccc43)cc1)cn2C(=O)N(C)C [1-Dimethylcarbamoyl-3-[4-(2-methyl-5-oxy-imidazo[4,5-c]pyridin-1-ylmethyl)-benzoyl]-1H-indole-4-carboxylic acid methyl ester]
- Ki: 23 nM

SMILES: Cc1nc2cnccc2n1Cc1ccc(C(=O)c2cn(C(=O)N(C)C)c3cccc(NC(=O)c4ccccc4)c23)cc1 [4-Benzoylamino-3-[4-(2-methyl-imidazo[4,5-c]pyridin-1-ylmethyl)-benzoyl]-indole-1-carboxylic acid dimethylamide]
- Ki: 2 nM

SMILES: COC(=O)c1cc(Br)cc2c1c(C(=O)c1ccc(Cn3c(C)nc4cnccc43)cc1)cn2C(=O)N(C)C [6-Bromo-1-dimethylcarbamoyl-3-[4-(2-methyl-imidazo[4,5-c]pyridin-1-ylmethyl)-benzoyl]-1H-indole-4-carboxylic acid methyl ester]
- Ki: 1.4 nM

SMILES: Cc1cccc2c1c(C(=O)CN1CCC(n3c(C)nc4cnccc43)CC1)cn2C(=O)N(C)C [4-Methyl-3-{2-[4-(2-methyl-imidazo[4,5-c]pyridin-1-yl)-piperidin-1-yl]-acetyl}-indole-1-carboxylic acid dimethylamide]
- Ki: 2 nM

SMILES: COC(=O)c1cccc2c1c(C(=O)c1ccc(Cn3c(C)nc4cccnc43)cc1)cn2C(=O)N(C)C [1-Dimethylcarbamoyl-3-[4-(2-methyl-imidazo[4,5-b]pyridin-3-ylmethyl)-benzoyl]-1H-indole-4-carboxylic acid methyl ester]
- Ki: 10 nM

SMILES: COC(=O)c1cccc2c1c(S(=O)(=O)c1ccc(Cn3c(C)nc4cnccc43)cc1)cn2C(=O)N(C)C [1-Dimethylcarbamoyl-3-[4-(2-methyl-imidazo[4,5-c]pyridin-1-ylmethyl)-benzenesulfonyl]-1H-indole-4-carboxylic acid methyl ester]
- Ki: 13 nM

SMILES: Cc1nc2cnccc2n1Cc1ccc(C(=O)c2cn(C(=O)N(C)C)c3cccc(C(=O)OC(C)C)c23)cc1 [1-Dimethylcarbamoyl-3-[4-(2-methyl-imidazo[4,5-c]pyridin-1-ylmethyl)-benzoyl]-1H-indole-4-carboxylic acid isopropyl ester]
- Ki: 4.7 nM
